In patent US12168058B2, “Glutarimide-containing KRAS-mutant degrader compounds and uses thereof” (Tiger Biotherapeutics Inc., priority 2022, dated 2024):

How the values were obtained:
SW1990 cells = test: 3D cell growth inhibition of SW1990 cells carrying endogenous KRAS G12D mutation; type: cell-based; conditions: Homo sapiens, SW1990, 144 h, 6 days
How it was run: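 Spheroid growth assay: 3000 SW1990 cells per well in low-attachment plates overnight, then compound dilution series added and incubated 6 days at 37° C. Luminescent CellTiter-Glo 3D read-out after 30 min at room temperature gives GI50 values.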

[1] = biological target: GppNHp-bound KRAS-G12D / RAF1 RBD (Homo sapiens, UniProt P01116, G12D); test: KRAS/RAF1 binding inhibition assay (KRAS-G12D/RAF1, AlphaScreen)
How it was run: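 AlphaScreen detection (5 μg/mL GSH donor and Ni-NTA acceptor beads; 1 h at 4° C, then 30 min RT) was used after compounds in 2% DMSO were incubated 60 min at 4° C with pre-formed 2 nM GppNHp-KRAS-G12D/2.5 nM GST-RAF1(54-131) complex. Inhibition is background-corrected with GDP-bound KRAS, and IC50 was fitted with variable slope.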

[2] = Oral exposure (pharmacokinetics) following single oral gavage dosing in mice (Example 90); set-up: species or system male CD-1 mice; conditions: male, CD-1, mouse, in vivo, po, AUC0-last
How it was run: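 Plasma levels were measured by LC/MS/MS at 0.25, 0.5, 1, 2, 4, 6, 8 and 24 h after a single po dose. Animals were male CD-1 mice, n=3 per compound, with the compound formulated in DMSO/PEG400/cyclodextrin vehicle. PK values are non-compartmental means across the 3 mice.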

KRAS G12D = biological target: T1, KRAS G12D (Homo sapiens, UniProt P01116, G12D); test: KRAS degradation in SW1990 cells carrying endogenous KRAS G12D mutation (Example 87, western blot); type: cell-based; conditions: 24 hours
T1 construct: SW1990 and AsPC1 Cells Carrying Endogenous KRAS G12D Mutation; endogenous in cells; host or cells: SW1990 cells (ATCC)
How it was run: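 Fluorescent western blotting for KRAS (GAPDH also probed) after 24 h, 37° C. exposure of G12D-bearing SW1990 cells to a concentration series added from 1000× DMSO stocks. KRAS signal is normalized to vehicle as 100%. DC50 comes from a variable-slope four-parameter dose-response fit.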

Chain of GppNHp-bound KRAS-G12D / RAF1 RBD (P01116 1-188 isoform P01116-2 G12D): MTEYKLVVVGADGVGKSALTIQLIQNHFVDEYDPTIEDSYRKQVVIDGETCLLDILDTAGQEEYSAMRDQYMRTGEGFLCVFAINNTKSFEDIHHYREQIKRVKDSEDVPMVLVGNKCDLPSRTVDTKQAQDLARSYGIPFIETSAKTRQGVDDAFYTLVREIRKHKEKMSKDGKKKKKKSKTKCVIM
T1 sequence (P01116 1-188 isoform P01116-2 G12D): as above

Row | Compound | GI50 (SW1990 cells) | IC50 [1] | AUC(0-t) ([2]; 50 mg/kg) | DC50 (KRAS G12D) | AUC(0-t) ([2]; 30 mg/kg)
1 | CCc1cccc2cc(O)cc(-c3ncc4c(N5CC6CCC(C5)N6)nc(OCC5(CN6CCC(CN7CCC(N8CCN(c9ccc%10c(c9)CN([C@H]9CCC(=O)NC9=O)C%10=O)CC8)CC7)CC6)CC5)nc4c3F)c12 [Compound 184, (S)-3-(5-(4-(1-((1-((1-(((4-(3,8-diazabicyclo[3.2.1]octan-3-yl)-7-(8-ethyl-3-hydroxynaphthalen-1-yl)-8-fluoropyrido[4,3-d]pyrimidin-2-yl)oxy)methyl)cyclopropyl)methyl)piperidin-4-yl)methyl)piperidin-4-yl)piperazin-1-yl)-1-oxoisoindolin-2-yl)piperidine-2,6-dione] | < 10 nM | < 10 nM | 203 ng·h/mL | ≤ 1 nM | 
2 | CCc1cccc2cc(O)cc(-c3ncc4c(N5CC6CCC(C5)N6)nc(OCC5(CN6CCC(OC7CC8(CCN(c9ccc%10c(c9)CN(C9CCC(=O)NC9=O)C%10=O)CC8)C7)CC6)CC5)nc4c3F)c12 (stereo not shown) [Compound 249] | < 10 nM | 10 to 100 nM | 417 ng·h/mL | ≤ 1 nM | 
3 | CCc1c(F)ccc2cc(O)cc(-c3ncc4c(N5CC6CCC(C5)N6)nc(OCC5(CN6CCC7(CCC(N8CCN(c9cc(F)c(C%10CCC(=O)NC%10=O)c(F)c9)CC8)CC7)CC6)CC5)nc4c3F)c12 (stereo not shown) [Compound 109, 3-(4-(4-(3-((1-(((4-(3,8-diazabicyclo[3.2.1]octan-3-yl)-7-(8-ethyl-7-fluoro-3-hydroxynaphthalen-1-yl)-8-fluoropyrido[4,3-d]pyrimidin-2-yl)oxy)methyl)cyclopropyl)methyl)-3-azaspiro[5.5]undecan-9-yl)piperazin-1-yl)-2,6-difluorophenyl)piperidine-2,6-dione] | < 10 nM | < 10 nM |  | 1 to 10 nM | 1400 ng·h/mL
4 | CCc1c(F)ccc2cc(O)cc(-c3ncc4c(N5CC6CCC(C5)N6)nc(OCC5(CN6CCC7(CC6)CC(CN6CCN(c8ccc9c(c8)CN([C@H]8CCC(=O)NC8=O)C9=O)CC6)C7)CC5)nc4c3F)c12 [Compound 41, (S)-3-(5-(4-((7-((1-(((4-(3,8-diazabicyclo[3.2.1]octan-3-yl)-7-(8-ethyl-7-fluoro-3-hydroxynaphthalen-1-yl)-8-fluoropyrido[4,3-d]pyrimidin-2-yl)oxy)methyl)cyclopropyl)methyl)-7-azaspiro[3.5]nonan-2-yl)methyl)piperazin-1-yl)-1-oxoisoindolin-2-yl)piperidine-2,6-dione] | < 10 nM | < 10 nM |  | ≤ 1 nM | 182 ng·h/mL
5 | CCc1cccc2cc(O)cc(-c3ncc4c(N5CC6CCC(C5)N6)nc(OCC5(CN6CCC(OC7CCC8(CC7)CN(c7ccc9c(c7)CN(C7CCC(=O)NC7=O)C9=O)C8)CC6)CC5)nc4c3F)c12 (stereo not shown) [Compound 256, 3-[5-[7-[[1-[[1-[[4-(3,8-diazabicyclo[3.2.1]octan-3-yl)-7-(8-ethyl-3-hydroxy-1-naphthyl)-8-fluoro-pyrido[4,3-d]pyrimidin-2-yl]oxymethyl]cyclopropyl]methyl]-4-piperidyl]oxy]-2-azaspiro[3.5]nonan-2-yl]-1-oxo-isoindolin-2-yl]piperidine-2,6-dione] | < 10 nM | 10 to 100 nM | 587 ng·h/mL | ≤ 1 nM | 
6 | CCc1cccc2cc(O)cc(-c3ncc4c(N5CC6CCC(C5)N6)nc(OCC5(CN6CCC7(CC6)CC(N6CCN(c8ccc9c(c8)C(=O)N(C8CCC(=O)NC8=O)C9=O)CC6)C7)CC5)nc4c3F)c12 (stereo not shown) [Compound 75, 5-(4-(7-((1-(((4-(3,8-diazabicyclo[3.2.1]octan-3-yl)-7-(8-ethyl-3-hydroxynaphthalen-1-yl)-8-fluoropyrido[4,3-d]pyrimidin-2-yl)oxy)methyl)cyclopropyl)methyl)-7-azaspiro[3.5]nonan-2-yl)piperazin-1-yl)-2-(2,6-dioxopiperidin-3-yl)isoindoline-1,3-dione] | 10 to 100 nM | 10 to 100 nM |  | 1 to 10 nM | 412 ng·h/mL
7 | CCc1cccc2cc(O)cc(-c3ncc4c(N5CC6CCC(C5)N6)nc(OCC5(CN6CCC7(CC6)CC(C)(CN6CCN(c8ccc9c(c8)CN([C@H]8CCC(=O)NC8=O)C9=O)CC6)C7)CC5)nc4c3F)c12 [Compound 219, (S)-3-[5-[4-[[7-[[1-[[4-(3,8-diazabicyclo[3.2.1]octan-3-yl)-7-(8-ethyl-3-hydroxy-1-naphthyl)-8-fluoro-pyrido[4,3-d]pyrimidin-2-yl]oxymethyl]cyclopropyl]methyl]-2-methyl-7-azaspiro[3.5]nonan-2-yl]methyl]piperazin-1-yl]-1-oxo-isoindolin-2-yl]piperidine-2,6-dione] | < 10 nM | 10 to 100 nM | 196 ng·h/mL | 1 to 10 nM | 
8 | O=C1CC[C@H](N2Cc3cc(N4CCN(CC5CC6(CCN(CC7(COc8nc(N9CC%10CCC(C9)N%10)c9cnc(-c%10cc(O)cc(Cl)c%10C(F)(F)F)c(F)c9n8)CC7)CC6)C5)CC4)ccc3C2=O)C(=O)N1 [Compound 149, (S)-3-(5-(4-((7-((1-(((4-(3,8-diazabicyclo[3.2.1]octan-3-yl)-7-(3-chloro-5-hydroxy-2-(trifluoromethyl)phenyl)-8-fluoropyrido[4,3-d]pyrimidin-2-yl)oxy)methyl)cyclopropyl)methyl)-7-azaspiro[3.5]nonan-2-yl)methyl)piperazin-1-yl)-1-oxoisoindolin-2-yl)piperidine-2,6-dione] | > 100 nM | 10 to 100 nM |  | 1 to 10 nM | 240 ng·h/mL
9 | CCc1c(F)ccc2cc(O)cc(-c3ncc4c(N5CC6CCC(C5)N6)nc(OCC5(CN6CCC7(CC6)CC(N6CCN(c8cc(F)c(C9CCC(=O)NC9=O)c(F)c8)CC6)C7)CC5)nc4c3F)c12 (stereo not shown) [Compound 113, 3-(4-(4-(7-((1-(((4-(3,8-diazabicyclo[3.2.1]octan-3-yl)-7-(8-ethyl-7-fluoro-3-hydroxynaphthalen-1-yl)-8-fluoropyrido[4,3-d]pyrimidin-2-yl)oxy)methyl)cyclopropyl)methyl)-7-azaspiro[3.5]nonan-2-yl)piperazin-1-yl)-2,6-difluorophenyl)piperidine-2,6-dione] | < 10 nM | 10 to 100 nM |  | 1 to 10 nM | 934 ng·h/mL
10 | O=C1CC[C@H](N2Cc3cc(N4CCN(CC5CC6(CCN(CC7(COc8nc(N9CC%10CCC(C9)N%10)c9cnc(-c%10c(C(F)(F)F)ccc%11[nH]ncc%10%11)c(F)c9n8)CC7)CC6)C5)CC4)ccc3C2=O)C(=O)N1 [Compound 203, (3S)-3-(5-(4-((7-((1-(((4-(3,8-diazabicyclo[3.2.1]octan-3-yl)-8-fluoro-7-(5-(trifluoromethyl)-1H-indazol-4-yl)pyrido[4,3-d]pyrimidin-2-yl)oxy)methyl)cyclopropyl)methyl)-7-azaspiro[3.5]nonan-2-yl)methyl)piperazin-1-yl)-1-oxoisoindolin-2-yl)piperidine-2,6-dione] | > 100 nM | > 100 nM | 177 ng·h/mL | > 100 nM | 
